Earlier results in article PMC10005815 (Journal of Medicinal Chemistry, 2023).
Like-named read-outs stand apart in the source and are kept apart here. * marks the point of attachment. Cbz = O=C(OCc1ccccc1)*

How the values were obtained:
SARS-CoV-1 [1] = tested on: SARS-CoV-1
panel of proteases = conditions: read-out: IC50 proteases (selectivity panel)
SARS-CoV-1 M^pro = conditions: for Ki: read-out: SARS-CoV-1 M^pro Ki
[2] = rat, in vivo
[3] = tested on: MERS-CoV S protein-mediated cell–cell fusion; conditions: read-out: IC50 in vitro fusion assay (MERS-CoV)
[4] = tested on: SARS-CoV-2 Omicron BA.1 and BA.2; conditions: in vivo
HCoV-229E = conditions: for EC50: read-out: HCoV-229E EC50
HCoV-OC43 = conditions: read-out: HCoV-OC43 EC90
SARS-CoV-1 [5] = conditions: mouse, in vivo
COVID-19 = conditions: human, in vivo
TMPRSS2 [6] = tested on: TMPRSS2
[7] = tested on: human mitochondrial RNA polymerase (h-mtRNAP)
[8] = buffer
TMPRSS2 [9] = molecular target: TMPRSS2; remark: listed apart in the source
RdRp from SARS-CoV-2 = conditions: read-out: Predicted Ki for binding to the protein active site
[10] = read-out: SARS-CoV-1 M^pro IC50

COc1cccc2[nH]c(C(=O)N[C@@H](CC(C)C)C(=O)N[C@@H](C[C@@H]3CCNC3=O)C(=O)CO)cc12 [PF-00835231]
EC50 (SARS-CoV-1 [1]; read-out: SARS-CoV-1 EC50): 4800 nM
IC50 (panel of proteases): > 10000 nM

COc1cccc2[nH]c(C(=O)N[C@@H](CC(C)C)C(=O)N[C@@H](C[C@@H]3CCNC3=O)C(=O)c3nc4ccccc4s3)cc12 [5h]
Ki (SARS-CoV-1 M^pro): 6.3 nM
Ki (SARS-CoV-2 M^pro; read-out: SARS-CoV-2 M^pro Ki): 17.6 nM
Bioavailability [2]: low bioavailability

Cbz-Val-Phe-aldehyde [MDL28170]
EC50 (SARS-CoV-1 [1]; read-out: EC50 neutral red uptake assay): 500 nM

N=C(N)Nc1ccc(C(=O)Oc2ccc3cc(C(=N)N)ccc3c2)cc1 [Nafamostat]
IC50 [3]: ~1 nM

Cc1cc(C(=O)N[C@@H](C)C(=O)N[C@H](C(=O)N[C@@H](CC(C)C)C(=O)N[C@H](/C=C/C(=O)OCc2ccccc2)C[C@@H]2CCNC2=O)C(C)C)no1 [N3]
Ki (HCoV-229E M^pro): 1670 nM

O=C(O)C1=CC(=C(c2ccc(O)c(C(=O)O)c2)c2ccc(O)c(C(=O)O)c2)C=CC1=O [ATA, Aurintricarboxylic acid]
Inhibition of mRNA transcription with respect to control (SARS-CoV-1 [1]): more than 1000 fold
SARS-CoV-1 replication IC50 (SARS-CoV-1 [1]): 200 µg/mL

CCOC(=O)[C@H]1OC1C(=O)N[C@@H](CC(C)C)C(=O)NCCC(C)C (stereo partly drawn) [E64D]
Reduction in the entry of SARS-CoV-2 PsV (SARS-CoV-2 PsV): 92.5%

CC(C)(C)[C@H](NC(=O)C(F)(F)F)C(=O)N1C[C@H]2[C@@H]([C@H]1C(=O)N[C@H](C#N)C[C@@H]1CCNC1=O)C2(C)C [PF-07321332]
Effect on virus titers [4]: only reduced the lung virus titers

CN(C)CCCSc1ccccc1NC(=O)/C=C/c1ccccc1 [cinanserin]
IC50 (SARS-CoV-1 M^pro; read-out: M^pro IC50): ~5000 nM
IC50 (HCoV-229E; read-out: HCoV-229E IC50 (antiviral assay)): 19000 nM

Cn1cnc(Cn2c(=O)[nH]/c(=N\c3cc4cn(C)nc4cc3Cl)n(Cc3cc(F)c(F)cc3F)c2=O)n1 [S-217622]
EC50 (SARS-CoV-1 [1]; read-out: SARS-CoV-1 EC50): 210 nM
Effect on virus titers [4]: additionally decreased the virus titers in the nasal turbinates
EC50 (SARS-CoV-2; read-out: SARS-CoV-2 WT strain EC50): 370 nM
EC50 (MERS-CoV; read-out: MERS-CoV EC50): 1400 nM
EC50 (HCoV-229E): 5500 nM
EC90 (HCoV-OC43): 74 nM
CC50 (Vero E6/TMPRSS2 cells): > 100000 nM

CCC(C)(C)NC(=O)C(c1ccn(C)c1)N(C(=O)Cn1nnc2ccccc21)c1ccc(NC(C)=O)cc1 (stereo not drawn) [SID24808289]
IC50 (SARS-CoV-1 M^pro; [10]): 6200 nM
IC50 (SARS-CoV-1 PL^pro): > 60000 nM

COc1ccc(C(=O)Nc2cccc(C(F)(F)F)c2)cc1Nc1nc(-c2cccnc2)c2[nH]ccc2n1 [XMU-MP-7]
Kd (Akt): 6.4 nM

CCOc1cc2ncc(C#N)c(Nc3ccc(F)c(Cl)c3)c2cc1NC(=O)/C=C/CN(C)C [pelitinib]
EC50 (SARS-CoV-2; read-out: EC50 (antiviral)): 1250 nM

O=C[C@H](C[C@@H]1CCNC1=O)NC(=O)[C@H](Cc1ccccc1)NC(=O)c1cc2ccccc2[nH]1 [18p]
EC50 (SARS-CoV-2; read-out: SARS-CoV-2 EC50): 290 nM

COc1cccc2[nH]c(C(=O)N[C@@H](CC(C)C)C(=O)N[C@@H](C[C@@H]3CCCNC3=O)C(=O)COC(=O)c3c(C)cc(C)nc3C)cc12 [15l]
IC50 (SARS-CoV-2 M^pro; read-out: SARS-CoV-2 M^pro IC50): 19 nM
EC50 (HCoV-229E): 48 nM

O=C(/C=C/c1ccccc1)N[C@@H](CC1CCCCC1)C(=O)N[C@@H](C[C@@H]1CCNC1=O)C(=O)C(=O)NCc1ccccc1 [11r]
IC50 (SARS-CoV-1 M^pro; [10]): 710 nM
IC50 (HCoV-NL63 M^pro): 12300 nM
EC50 (SARS-CoV-1 [1]; read-out: SARS-CoV-1 EC50): 2100 nM
S.I. MERS-CoV (CC50/EC50) (MERS-CoV): 1.1 × 10^5
EC50 (HCoV-229E): 1800 nM

Cc1cccc(/C=N/Nc2cc(N3CCOCC3)nc(OCCc3ccccn3)n2)c1 [Apilimod]
Concentration preventing EVD infection of several cell lines (Ebola): ~0.1 µM

CN(C)C(=O)COC(=O)Cc1ccc(OC(=O)c2ccc(NC(=N)N)cc2)cc1 [Camostat]
Survival rate to SARS-CoV-1 (SARS-CoV-1 [5]): ~60%
Reduction of MERS-CoV production (MERS-CoV): 270 fold

CCC(CC)COC(=O)[C@H](C)N[P@](=O)(OC[C@H]1O[C@@](C#N)(c2ccc3c(N)ncnn23)[C@H](O)[C@@H]1O)Oc1ccccc1 [remdesivir, Remdesivir]
Reduction of hospitalization compared to placebo (COVID-19): 87%
IC50 (SARS-CoV-2; read-out: SARS-CoV-2 infection IC50): 770 nM
CC50 (Vero E6 cells): > 100000 nM

O=C(On1nnc2ccccc21)c1ccc2[nH]ccc2c1 [compound 8]
Ki (SARS-CoV-1 M^pro): 7.5 nM

NC1(C(=O)N[C@@H](CCO)c2ccc(Cl)cc2)CCN(c2ncnc3[nH]ccc23)CC1 [Capivasertib]
50% cytotoxicity concentration (Vero cells): 82 µM

N=C(N)Nc1ccc(C(=O)O)cc1 [GBA, 4-guanidinobenzoic acid]
TMPRSS2 inhibition (TMPRSS2 [6]): inactive

CC(C)(C)OC(=O)Nc1cccn([C@@H](CC2CC2)C(=O)N[C@@H](C[C@@H]2CCNC2=O)C(=O)C(=O)NCc2ccccc2)c1=O [13b]
IC50 (SARS-CoV-1 M^pro; [10]): 900 nM
EC50 (SARS-CoV-1 replicon): 1750 nM
EC50 (SARS-CoV-2; read-out: SARS-CoV-2 EC50): 4000 nM

N#C[C@@]1(c2ccc3c(N)ncnn23)O[C@H](COP(=O)(O)OP(=O)(O)OP(=O)(O)O)[C@@H](O)[C@H]1O [remdesivir-TP]
Selectivity with respect to ATP [7]: up to 500 fold

CC(OC(C)(C)C)[C@H](NC(=O)OCc1ccccc1)C(=O)N[C@@H](CC1CCCCC1)C(=O)N[C@H](C=O)C[C@@H]1CCNC1=O (stereo partly drawn) [TG-0205221]
Ki (SARS-CoV-1 M^pro): 53 nM
Ki (HCoV-229E M^pro): 68 nM

O=C(Oc1cncc(Br)c1)c1ccco1 [compound 39]
IC50 (SARS-CoV-1 M^pro; [10]): 50 nM
T1/2 [8]: [drawing 13] 39 SARS-CoV-1 M^pro IC50= 50 nM T1/2 = 119 h, phosphate buffer pH= 7.5

CC(C)C(=O)OC[C@H]1O[C@@H](n2ccc(NO)nc2=O)[C@H](O)[C@@H]1O [Molnupiravir]
Effect on virus titers [4]: only reduced the lung virus titers
Efficacy in inhibiting SARS-CoV-2 replication relative to remdesivir (SARS-CoV-2): 5–10 fold

CCc1ccccc1NC(=O)CSC(=O)NNC(=O)[C@H](Cc1c[nH]c2ccccc12)NC(=O)OC(C)(C)C [SID-26681509]
Decrease of SARS-CoV-2 pseudovirion entry (SARS-CoV-2 PsV): about 76%

N=C(N)c1cccc(C[C@H](NS(=O)(=O)c2cccc(-c3ccc(Cl)cc3Cl)c2)C(=O)N2CCC(CCN)CC2)c1 [I-432]
Ki (TMPRSS2 [9]): 0.9 nM

O=C(Oc1cncc(Cl)c1)c1cccc2[nH]ccc12 [compound 10]
IC50 (SARS-CoV-1 M^pro; [10]): 30 nM
EC50 (SARS-CoV-1 [1]; read-out: SARS-CoV-1 EC50): 6900 nM

COc1ccc2c(c1)[C@@H]1C[C@]1(C(=O)N1[C@@H]3CC[C@H]1CN(C)C3)Cn1c-2c(C2CCCCC2)c2ccc(C(=O)NS(=O)(=O)N(C)C)cc21 [Beclabuvir]
Ki (RdRp from SARS-CoV-2): ~50 nM
